Reference: the Kinase Knowledgebase extract (Sharma et al. 2016)

Target: EGFR (UniProt P00533)
Details: concentration not given here

Sequence of EGFR (P00533 whole entry, looked up): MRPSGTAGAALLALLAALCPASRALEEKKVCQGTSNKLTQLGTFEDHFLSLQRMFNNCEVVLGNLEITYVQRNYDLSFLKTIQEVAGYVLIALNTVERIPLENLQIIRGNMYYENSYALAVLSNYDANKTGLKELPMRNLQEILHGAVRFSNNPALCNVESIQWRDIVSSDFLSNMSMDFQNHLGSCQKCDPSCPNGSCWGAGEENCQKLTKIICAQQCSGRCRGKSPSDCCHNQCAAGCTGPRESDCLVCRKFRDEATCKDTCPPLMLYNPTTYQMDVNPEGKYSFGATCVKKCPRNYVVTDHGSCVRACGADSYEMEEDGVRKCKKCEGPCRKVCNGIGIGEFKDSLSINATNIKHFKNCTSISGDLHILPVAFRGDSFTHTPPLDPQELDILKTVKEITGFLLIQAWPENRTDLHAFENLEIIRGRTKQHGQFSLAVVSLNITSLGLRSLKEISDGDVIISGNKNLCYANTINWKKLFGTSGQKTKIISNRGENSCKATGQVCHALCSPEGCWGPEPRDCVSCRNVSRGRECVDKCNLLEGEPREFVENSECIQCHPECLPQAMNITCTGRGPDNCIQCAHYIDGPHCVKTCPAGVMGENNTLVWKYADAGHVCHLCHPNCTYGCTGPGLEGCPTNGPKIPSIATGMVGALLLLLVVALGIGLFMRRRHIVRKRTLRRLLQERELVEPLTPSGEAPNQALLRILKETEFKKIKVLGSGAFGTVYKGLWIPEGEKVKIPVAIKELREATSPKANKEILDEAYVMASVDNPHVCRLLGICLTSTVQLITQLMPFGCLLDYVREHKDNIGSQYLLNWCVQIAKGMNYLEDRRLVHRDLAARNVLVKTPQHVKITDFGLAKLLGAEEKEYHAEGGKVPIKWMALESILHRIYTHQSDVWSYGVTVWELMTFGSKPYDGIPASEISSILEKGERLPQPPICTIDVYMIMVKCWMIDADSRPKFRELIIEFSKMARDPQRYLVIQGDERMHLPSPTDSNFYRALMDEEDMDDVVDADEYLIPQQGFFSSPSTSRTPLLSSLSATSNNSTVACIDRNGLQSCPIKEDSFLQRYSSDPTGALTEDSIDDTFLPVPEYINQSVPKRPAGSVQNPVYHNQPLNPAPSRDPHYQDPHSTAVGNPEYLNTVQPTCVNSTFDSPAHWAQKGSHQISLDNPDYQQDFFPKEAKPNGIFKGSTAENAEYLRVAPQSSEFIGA

Compound | inhibition
CCC(=O)Nc1ccc(O)c(C(=O)Nc2ccc(Oc3ccccc3)cc2)c1 | 48.5%
C=CC(=O)Nc1ccc(OC)c(C(=O)Nc2cccc(C(O)c3ccccc3)c2)c1 (centres undefined) | 5.84%
C=CC(=O)Nc1ccc(OC)c(C(=O)Nc2cccc(Oc3ccccc3)c2)c1 | 1.59%
CCC(=O)Nc1ccc(O)c(C(=O)Nc2cccc(C(=O)N(CC)CC)c2)c1 | 46.6%
